For experiment [1], the target named is recombinant human ASK1 (hASK1) catalytic domain (Homo sapiens (Human), UniProt Q99683). Nature of the experiment: ASK1 enzymatic assay (ADP-Glo Kinase Assay). The experiment is classed as biochemical. To be noted: for IC50: hASK1 0.25 nM, MKK6 300 nM, ATP 100 uM, Mean±Standard Deviation; for Efficacy (%): hASK1 enzymatic assay, standard ASK1 inhibitor = 100% inhibition, DMSO vehicle = 0%. An excerpt: ASK1 Inhibitor Effect Determined by ASK1 Enzymatic Assay
Sequence of recombinant human ASK1 (hASK1) catalytic domain (Q99683 680-938): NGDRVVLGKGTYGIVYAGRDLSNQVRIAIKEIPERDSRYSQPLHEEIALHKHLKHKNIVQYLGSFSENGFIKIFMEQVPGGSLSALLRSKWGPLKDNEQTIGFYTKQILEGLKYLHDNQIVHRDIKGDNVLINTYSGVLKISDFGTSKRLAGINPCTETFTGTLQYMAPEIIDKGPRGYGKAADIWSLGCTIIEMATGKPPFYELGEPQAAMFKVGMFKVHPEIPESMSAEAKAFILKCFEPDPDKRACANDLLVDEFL
The purpose of this assay is to determine the effect of ASK1 inhibitors on the production of ADP by ASK1. The recombinant human ASK1 (hASK1) catalytic domain tagged with Glutathione S-transferase is used, and histidine-tagged full-length human MAP kinase kinase 6 (MKK6) and ATP are the substrate and cofactor, respectively.
The assay is done using an ADP-Glo™ Kinase Assay Kit (Promega, Catalog #V9102) according to the manufacturer's protocol with the following modifications. Briefly, hASK1 (0.25 nM) and MKK6 (300 nM) in a buffer (10 mM MOPS pH 7.0; 10 mM Mg-Acetate; 1 mM DTT; 0.025% NP-40; 0.05% BSA; 1.5% glycerol) are incubated with ASK1 inhibitors at varying concentrations ranging from 10.00 uM to 0.17 nM for 15 minutes, followed by incubation with ATP (100 uM) for 30 minutes at room temperature. ADP-Glo™ Reagent is added to terminate the kinase reaction and deplete the remaining ATP. The Kinase Detection Reagent is then added to convert ADP to ATP. The newly synthesized ATP is measured using a luciferase/luciferin reaction, and the luminescence determined by Envision (PerkinElmer). The luminescence intensities are analyzed by GeneData, and fit to a 4 parameter dose response-inhibitor logistics curve to determine IC50 values, using the effects of 5-(4-cyclopropyl-1H-imidazol-1-yl)-2-fluoro-4-methyl-N-{6-[4-(propan-2-yl)-4H-1,2,4-triazol-3-yl]pyridin-2-yl}benzamide as a standard and DMSO vehicle for 100% and 0% inhibition, respectively.

In experiment [2] the target is human ASK1 (Homo sapiens (Human), UniProt Q99683). Nature of the experiment: ASK1 autophosphorylation (Thr838) assay in HEK293 cells overexpressing human ASK1. It is filed as cell-based. The note with it: for IC50: H2O2-stimulated (1 mM, 10 minutes) ASK1 autophosphorylation at Thr838, HEK293 cells, Mean±Standard Deviation, read-out: HEK pASK1 IC50; for Efficacy (%): HEK pASK1 assay, standard ASK1 inhibitor = 100% inhibition, DMSO vehicle = 0%.
Sequence of human ASK1 (Q99683 whole entry): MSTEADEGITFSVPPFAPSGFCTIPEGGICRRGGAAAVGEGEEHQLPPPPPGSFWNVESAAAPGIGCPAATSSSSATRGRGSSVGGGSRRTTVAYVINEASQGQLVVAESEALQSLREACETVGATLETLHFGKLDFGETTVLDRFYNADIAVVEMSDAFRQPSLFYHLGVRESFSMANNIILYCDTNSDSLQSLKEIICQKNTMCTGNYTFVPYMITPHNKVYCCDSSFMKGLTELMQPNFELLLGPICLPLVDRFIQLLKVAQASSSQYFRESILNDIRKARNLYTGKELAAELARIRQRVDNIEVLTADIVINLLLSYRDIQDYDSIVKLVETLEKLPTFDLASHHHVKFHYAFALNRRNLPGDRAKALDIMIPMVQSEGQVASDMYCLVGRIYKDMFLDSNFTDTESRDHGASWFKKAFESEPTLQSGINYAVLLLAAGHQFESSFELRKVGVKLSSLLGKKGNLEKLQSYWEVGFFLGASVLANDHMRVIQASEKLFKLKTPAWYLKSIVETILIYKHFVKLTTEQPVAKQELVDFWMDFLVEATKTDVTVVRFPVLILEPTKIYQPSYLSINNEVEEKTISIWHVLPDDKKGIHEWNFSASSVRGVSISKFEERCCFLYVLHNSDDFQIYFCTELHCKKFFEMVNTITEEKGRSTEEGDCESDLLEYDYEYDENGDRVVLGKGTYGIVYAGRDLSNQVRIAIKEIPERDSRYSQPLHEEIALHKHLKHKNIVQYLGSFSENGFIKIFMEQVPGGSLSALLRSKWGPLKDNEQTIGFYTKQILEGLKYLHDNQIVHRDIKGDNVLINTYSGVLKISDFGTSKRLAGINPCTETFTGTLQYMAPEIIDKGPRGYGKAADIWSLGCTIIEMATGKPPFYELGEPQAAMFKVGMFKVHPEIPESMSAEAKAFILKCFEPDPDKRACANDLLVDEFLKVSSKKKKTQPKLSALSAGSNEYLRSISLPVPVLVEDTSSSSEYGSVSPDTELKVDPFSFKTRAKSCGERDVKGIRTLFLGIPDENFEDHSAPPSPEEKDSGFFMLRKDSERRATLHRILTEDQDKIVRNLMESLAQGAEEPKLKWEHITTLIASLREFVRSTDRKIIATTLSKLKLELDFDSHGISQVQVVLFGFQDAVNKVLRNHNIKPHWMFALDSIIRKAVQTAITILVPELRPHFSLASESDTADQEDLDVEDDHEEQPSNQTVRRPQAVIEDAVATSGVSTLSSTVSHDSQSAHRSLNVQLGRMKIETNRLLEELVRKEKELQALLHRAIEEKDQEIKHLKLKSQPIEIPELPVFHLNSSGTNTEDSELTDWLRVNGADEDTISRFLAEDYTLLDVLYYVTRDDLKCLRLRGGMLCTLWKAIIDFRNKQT

`Cc1ncc(CCN2CCN(c3cccc(-c4nncn4C(C)C)n3)C2=O)cn1` [Example 6, 1-[6-(4-Isopropyl-1,2,4-triazol-3-yl)-2-pyridyl]-3-[2-(2-methylpyrimidin-5-yl)ethyl]imidazolidin-2-one]: in experiment [1], the IC50 is 88.3 ± 21.8 nM and the “Efficacy (%)” value worked out at 100%.
With `CC(C)n1cnnc1-c1cccc(N2CCN(CCn3cnc(C4CC4)c3)C2=O)n1` [Example 3, 1-[2-(4-Cyclopropylimidazol-1-yl)ethyl]-3-[6-(4-isopropyl-1,2,4-triazol-3-yl)-2-pyridyl]imidazolidin-2-one], in experiment [1], the IC50 is 10.8 ± 2.01 nM and the “Efficacy (%)” value is 100%. For the same compound, in experiment [2], the half-inhibitory concentration (IC50) turned out to be 1130 ± 300 nM and the “Efficacy (%)” value was 101%.
As for `Cc1ccc(CCN2CCN(c3cccc(-c4nncn4C(C)C)n3)C2=O)cn1` [Example 7, 1-[6-(4-Isopropyl-1,2,4-triazol-3-yl)-2-pyridyl]-3-[2-(6-methyl-3-pyridyl)ethyl]imidazolidin-2-one], in experiment [1], the IC50 amounted to 16.6 ± 3.16 nM and the “Efficacy (%)” value amounted to 100%. For the same compound, in experiment [2], the half-inhibitory concentration (IC50) was 520 nM and the “Efficacy (%)” value worked out at 100%.
Take `CC(C)n1cnnc1-c1cccc(N2CCN([C@H](C)Cn3cnc(C4CC4)c3)C2=O)n1` [Example 2, 1-[(1R)-2-(4-Cyclopropylimidazol-1-yl)-1-methyl-ethyl]-3-[6-(4-isopropyl-1,2,4-triazol-3-yl)-2-pyridyl]imidazolidin-2-one]: in experiment [1], the IC50 was determined as 14 ± 2.61 nM and the “Efficacy (%)” value was 100%. In experiment [2], the IC50 is 886 ± 65.4 nM and the “Efficacy (%)” value stood at 96.0%.
On to `CC(C)n1cnnc1-c1cccc(N2CCN(CCc3cnc(C4CC4)nc3)C2=O)n1` [Example 4, 1-[2-(2-Cyclopropylpyrimidin-5-yl)ethyl]-3-[6-(4-isopropyl-1,2,4-triazol-3-yl)-2-pyridyl]imidazolidin-2-one], for which the IC50 was determined as 13.7 ± 6.57 nM in experiment [1] and 735 nM in experiment [2]. Further, the “Efficacy (%)” value in experiment [1] worked out at 100%; in experiment [2] it was 107%.
As for `CC(C)n1cnnc1-c1cccc(N2CCNC2=O)n1` [Example 5, 1-(6-(4-Isopropyl-4H-1,2,4-triazol-3-yl)pyridin-2-yl)imidazolidin-2-one], in experiment [1], the IC50 is 64.4 ± 58.5 nM and the “Efficacy (%)” value was determined as 100%. Besides, in experiment [2], the half-maximal inhibitory concentration (IC50) is 3770 nM and the “Efficacy (%)” value is given as 100%.
On to `CC(C)n1cnnc1-c1cccc(N2CCN(CCc3cccnc3)C2=O)n1` [Example 1, 1-[6-(4-Isopropyl-1,2,4-triazol-3-yl)-2-pyridyl]-3-[2-(3-pyridyl)ethyl]imidazolidin-2-one], for which, in experiment [1], the concentration for half-maximal inhibition (IC50) was 36 ± 6.25 nM and the “Efficacy (%)” value was determined as 100%. For the same compound, in experiment [2], the 50% inhibitory concentration (IC50) came to 1400 nM and the “Efficacy (%)” value is listed as 80.5%.

The values above are taken from patent publication US11124496B2, “Imidazolidine compounds” (Eli Lilly and Company, priority 2017, dated 2021).
